Consider 32 compounds from patent US10392391B2 (Vertex Pharmaceuticals Incorporated, priority 2012, dated 2019).

Read-outs that look alike come from different tables or passages of the source. Where only a bound is given, the exact number is not on record here.

The assay deals with ATR kinase (full-length ATR) (Homo sapiens (Human), UniProt Q13535). The assay can be described thus: ATR inhibition assay (radioactive-phosphate incorporation). Type of assay: biochemical. In a few lines: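 Radiometric 33P incorporation by 5 nM full-length ATR into 800 μM target peptide with 10 μM [γ-33P]ATP, in 50 mM Tris/HCl pH 7.5, 10 mM MgCl2, 1 mM DTT, 7% DMSO, 25° C. Compound pre-incubated 10 minutes; reaction stopped after 24 hours, captured on phosphocellulose. Ki(app) from non-linear regression of initial rates.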

[1] abbreviates: Ki(app), 5 nM full-length ATR, 10 μM ATP, 25° C.

ATR kinase (full-length ATR), sequence (Q13535 whole entry): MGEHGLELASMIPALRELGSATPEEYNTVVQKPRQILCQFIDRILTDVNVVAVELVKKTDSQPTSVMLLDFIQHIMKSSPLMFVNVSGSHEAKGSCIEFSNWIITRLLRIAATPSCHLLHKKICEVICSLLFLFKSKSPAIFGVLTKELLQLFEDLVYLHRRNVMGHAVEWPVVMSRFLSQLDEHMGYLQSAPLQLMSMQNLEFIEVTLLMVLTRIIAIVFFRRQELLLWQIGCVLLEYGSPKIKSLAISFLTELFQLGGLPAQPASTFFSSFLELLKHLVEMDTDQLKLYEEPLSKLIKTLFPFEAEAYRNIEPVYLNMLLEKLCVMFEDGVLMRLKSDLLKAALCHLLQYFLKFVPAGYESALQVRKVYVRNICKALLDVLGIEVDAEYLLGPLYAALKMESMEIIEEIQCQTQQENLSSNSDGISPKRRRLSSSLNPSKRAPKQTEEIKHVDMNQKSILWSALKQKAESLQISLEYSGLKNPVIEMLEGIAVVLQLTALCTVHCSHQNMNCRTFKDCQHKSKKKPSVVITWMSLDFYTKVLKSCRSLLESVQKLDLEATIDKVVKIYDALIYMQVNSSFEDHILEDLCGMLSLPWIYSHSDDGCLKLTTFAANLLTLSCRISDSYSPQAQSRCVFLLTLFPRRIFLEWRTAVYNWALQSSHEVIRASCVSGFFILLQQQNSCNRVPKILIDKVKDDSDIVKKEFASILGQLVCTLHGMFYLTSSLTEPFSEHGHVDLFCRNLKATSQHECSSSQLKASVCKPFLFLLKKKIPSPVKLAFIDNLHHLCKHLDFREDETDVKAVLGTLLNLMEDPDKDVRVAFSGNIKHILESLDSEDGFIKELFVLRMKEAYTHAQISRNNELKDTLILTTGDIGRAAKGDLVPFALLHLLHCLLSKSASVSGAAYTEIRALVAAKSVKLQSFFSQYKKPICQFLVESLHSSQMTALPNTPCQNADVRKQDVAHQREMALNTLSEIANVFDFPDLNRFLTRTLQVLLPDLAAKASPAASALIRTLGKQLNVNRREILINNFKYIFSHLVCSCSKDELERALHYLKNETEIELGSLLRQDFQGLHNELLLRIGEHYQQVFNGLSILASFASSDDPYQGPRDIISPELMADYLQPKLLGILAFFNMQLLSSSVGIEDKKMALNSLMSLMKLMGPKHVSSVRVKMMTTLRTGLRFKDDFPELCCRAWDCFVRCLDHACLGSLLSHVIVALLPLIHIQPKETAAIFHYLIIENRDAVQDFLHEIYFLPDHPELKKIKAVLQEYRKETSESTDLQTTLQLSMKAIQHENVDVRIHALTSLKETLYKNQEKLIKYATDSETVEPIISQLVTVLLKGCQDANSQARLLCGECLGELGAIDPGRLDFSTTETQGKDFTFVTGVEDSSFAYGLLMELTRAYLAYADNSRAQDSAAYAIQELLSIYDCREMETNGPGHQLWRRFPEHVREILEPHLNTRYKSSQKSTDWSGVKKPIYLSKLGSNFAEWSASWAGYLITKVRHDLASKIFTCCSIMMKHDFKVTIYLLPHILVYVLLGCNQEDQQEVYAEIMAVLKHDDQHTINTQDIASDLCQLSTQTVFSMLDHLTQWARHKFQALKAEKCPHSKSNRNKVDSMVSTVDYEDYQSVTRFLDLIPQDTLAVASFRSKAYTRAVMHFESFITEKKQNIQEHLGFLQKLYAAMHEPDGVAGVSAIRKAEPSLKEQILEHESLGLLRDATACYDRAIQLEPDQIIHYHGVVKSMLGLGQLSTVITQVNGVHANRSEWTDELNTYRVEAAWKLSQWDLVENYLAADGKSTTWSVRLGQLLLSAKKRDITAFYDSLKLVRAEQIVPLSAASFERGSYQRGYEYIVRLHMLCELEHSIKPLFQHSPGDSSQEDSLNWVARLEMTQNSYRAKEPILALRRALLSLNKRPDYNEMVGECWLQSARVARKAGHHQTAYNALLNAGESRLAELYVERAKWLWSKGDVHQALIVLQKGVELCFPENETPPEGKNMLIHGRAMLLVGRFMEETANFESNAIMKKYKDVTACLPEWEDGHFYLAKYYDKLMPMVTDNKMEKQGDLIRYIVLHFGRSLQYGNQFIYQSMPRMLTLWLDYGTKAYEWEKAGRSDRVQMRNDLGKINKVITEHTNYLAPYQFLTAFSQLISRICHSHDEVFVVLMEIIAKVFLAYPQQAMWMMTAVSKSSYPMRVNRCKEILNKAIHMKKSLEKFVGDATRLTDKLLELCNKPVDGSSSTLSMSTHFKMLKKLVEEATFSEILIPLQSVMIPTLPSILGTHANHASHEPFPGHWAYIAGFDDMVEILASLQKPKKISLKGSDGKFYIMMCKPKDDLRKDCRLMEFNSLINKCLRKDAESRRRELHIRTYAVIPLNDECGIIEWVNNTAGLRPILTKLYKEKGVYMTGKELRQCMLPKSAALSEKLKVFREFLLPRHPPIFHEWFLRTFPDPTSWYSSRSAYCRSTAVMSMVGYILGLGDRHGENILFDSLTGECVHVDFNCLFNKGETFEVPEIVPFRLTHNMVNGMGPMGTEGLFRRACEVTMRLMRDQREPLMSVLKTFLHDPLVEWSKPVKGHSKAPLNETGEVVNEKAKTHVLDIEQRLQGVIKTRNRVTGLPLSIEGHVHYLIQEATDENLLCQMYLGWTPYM

`CN(C)C1CCCN(c2ccncc2NC(=O)c2c(N)nn3cc(Cl)cnc23)C1` (centres unmarked) [I-N-40, 2-amino-6-chloro-N-(4-(3-(dimethylamino)piperidin-1-yl)pyridin-3-yl)pyrazolo[1,5-a]pyrimidine-3-carboxamide]: the Ki under setting [1] was in the range of 10 to 1000 nM.

With `Nc1nn2cc(F)cnc2c1C(=O)Nc1cnccc1N1CCN2CCC[C@H]2C1` [I-N-21, (S)-2-amino-6-fluoro-N-(4-(hexahydropyrrolo[1,2-a]pyrazin-2(1H)-yl)pyridin-3-yl)pyrazolo[1,5-a]pyrimidine-3-carboxamide], under setting [1], the Ki fell in the range of 10 to 1000 nM.

On to `COCC1CCN(c2ccncc2NC(=O)c2c(N)nn3cc(F)cnc23)CC1` [I-N-282, 2-amino-6-fluoro-N-(4-(4-(methoxymethyl)piperidin-1-yl)pyridin-3-yl)pyrazolo[1,5-a]pyrimidine-3-carboxamide], for which the Ki under setting [1] is 10 to 1000 nM.

Take `C[C@@H]1CN(C(=O)C2CCN(c3c(F)cncc3NC(=O)c3c(N)nn4cc(F)cnc34)CC2)CCN1` [I-G-45, (R)-2-amino-6-fluoro-N-(5-fluoro-4-(4-(3-methylpiperazine-1-carbonyl)piperidin-1-yl)pyridin-3-yl)pyrazolo[1,5-a]pyrimidine-3-carboxamide]: the Ki under setting [1] fell in the range of 10 to 1000 nM.

Turning to `Nc1nn2cc(Cl)cnc2c1C(=O)Nc1cnccc1O[C@@H]1CCOC1` [I-O-54, (R)-2-amino-6-chloro-N-(4-((tetrahydrofuran-3-yl)oxy)pyridin-3-yl)pyrazolo[1,5-a]pyrimidine-3-carboxamide], the Ki under setting [1] was in the range of 10 to 1000 nM.

For `Nc1nn2cc(F)cnc2c1C(=O)Nc1cnccc1-c1ccc(S(=O)(=O)N2CCC2)cc1` [I-C-64, 2-amino-N-(4-(4-(azetidin-1-ylsulfonyl)phenyl)pyridin-3-yl)-6-fluoropyrazolo[1,5-a]pyrimidine-3-carboxamide], under setting [1], the Ki is 10 to 1000 nM.

With `Nc1nn2cc(F)cnc2c1C(=O)Nc1cnccc1N1CCN(C2CCOCC2)CC1` [I-N-11, 2-amino-6-fluoro-N-(4-(4-(tetrahydro-2H-pyran-4-yl)piperazin-1-yl)pyridin-3-yl)pyrazolo[1,5-a]pyrimidine-3-carboxamide], the Ki under setting [1] was in the range of 10 to 1000 nM.

Regarding `Nc1nn2cc(F)cnc2c1C(=O)Nc1cnccc1OC1CCS(=O)(=O)CC1` [I-O-45, 2-amino-N-(4-((1,1-dioxidotetrahydro-2H-thiopyran-4-yl)oxy)pyridin-3-yl)-6-fluoropyrazolo[1,5-a]pyrimidine-3-carboxamide], the Ki under setting [1] fell in the range of 10 to 1000 nM.

In the case of `C[N+]1([O-])CCc2c(cncc2NC(=O)c2c(N)nn3cc(F)cnc23)C1` (centres unmarked) [I-C-9, 5-(2-amino-6-fluoropyrazolo[1,5-a]pyrimidine-3-carboxamido)-2-methyl-1,2,3,4-tetrahydro-2,7-naphthyridine 2-oxide], the Ki under setting [1] is 10 to 1000 nM.

`Nc1nn2cc(F)cnc2c1C(=O)Nc1cncc(F)c1N1CCC(C(=O)N2CC(N3CCCCC3)C2)CC1` [I-G-57, 2-amino-6-fluoro-N-(5-fluoro-4-(4-(3-(piperidin-1-yl)azetidine-1-carbonyl)piperidin-1-yl)pyridin-3-yl)pyrazolo[1,5-a]pyrimidine-3-carboxamide]: the Ki under setting [1] lay within 10 to 1000 nM.

Take `N#CCc1cnc2c(C(=O)Nc3cnccc3OCC(F)(F)F)c(N)nn2c1` [I-O-34, 2-amino-6-(cyanomethyl)-N-(4-(2,2,2-trifluoroethoxy)pyridin-3-yl)pyrazolo[1,5-a]pyrimidine-3-carboxamide]: the Ki under setting [1] was less than 10 nM.

Regarding `Nc1nn2cc(F)cnc2c1C(=O)Nc1cncc(F)c1N1CCC(C(=O)N2CCN3CCCC3C2)CC1` (centres unmarked) [I-G-10, 2-amino-6-fluoro-N-(5-fluoro-4-(4-(octahydropyrrolo[1,2-a]pyrazine-2-carbonyl)piperidin-1-yl)pyridin-3-yl)pyrazolo[1,5-a]pyrimidine-3-carboxamide], the Ki under setting [1] is 10 to 1000 nM.

Turning to `CN1CCN(c2ccncc2NC(=O)c2c(N)nn3cc(CC#N)cnc23)CC1` [I-N-82, 2-amino-6-(cyanomethyl)-N-(4-(4-methylpiperazin-1-yl)pyridin-3-yl)pyrazolo[1,5-a]pyrimidine-3-carboxamide], under setting [1], the Ki is less than 10 nM.

Take `Nc1nn2cc(F)cnc2c1C(=O)Nc1cncc(F)c1N1CCC(N2CCOCC2)CC1` [I-N-189, 2-amino-6-fluoro-N-(5-fluoro-4-(4-morpholinopiperidin-1-yl)pyridin-3-yl)pyrazolo[1,5-a]pyrimidine-3-carboxamide]: the Ki under setting [1] fell in the range of 10 to 1000 nM.

Take `Nc1nn2cc(F)cnc2c1C(=O)Nc1cnccc1N1CCC(c2nnco2)CC1` [I-N-268, N-(4-(4-(1,3,4-oxadiazol-2-yl)piperidin-1-yl)pyridin-3-yl)-2-amino-6-fluoropyrazolo[1,5-a]pyrimidine-3-carboxamide]: the Ki under setting [1] is 10 to 1000 nM.

For `CCOc1ccncc1NC(=O)c1c(N)nn2cc(Cl)cnc12` [I-O-56, 2-amino-6-chloro-N-(4-ethoxypyridin-3-yl)pyrazolo[1,5-a]pyrimidine-3-carboxamide], the Ki under setting [1] lay in the range of 10 to 1000 nM.

`CNC1CN(C(=O)C2CCN(c3c(F)cncc3NC(=O)c3c(N)nn4cc(F)cnc34)CC2)C1` [I-G-34, 2-amino-6-fluoro-N-(5-fluoro-4-(4-(3-(methylamino)azetidine-1-carbonyl)piperidin-1-yl)pyridin-3-yl)pyrazolo[1,5-a]pyrimidine-3-carboxamide]: the Ki under setting [1] was in the range of 10 to 1000 nM.

Take `Nc1nn2cc(F)cnc2c1C(=O)Nc1cncc(F)c1N1CCN(C(=O)C2CC3CCCCN3C2)CC1` (centres unmarked) [I-N-203, 2-amino-6-fluoro-N-(5-fluoro-4-(4-(octahydroindolizine-2-carbonyl)piperazin-1-yl)pyridin-3-yl)pyrazolo[1,5-a]pyrimidine-3-carboxamide]: the Ki under setting [1] fell in the range of 10 to 1000 nM.

For the compound `C[C@H]1CN(C(=O)C2CCN(c3c(F)cncc3NC(=O)c3c(N)nn4cc(F)cnc34)CC2)CCN1C` [I-G-47, (S)-2-amino-N-(4-(4-(3,4-dimethylpiperazine-1-carbonyl)piperidin-1-yl)-5-fluoropyridin-3-yl)-6-fluoropyrazolo[1,5-a]pyrimidine-3-carboxamide], the Ki under setting [1] is 10 to 1000 nM.

Turning to `Nc1nn2cc(F)cnc2c1C(=O)Nc1cnccc1N1CCN2C(=O)CC[C@H]2C1` [I-N-217, (S)-2-amino-6-fluoro-N-(4-(6-oxohexahydropyrrolo[1,2-a]pyrazin-2(1H)-yl)pyridin-3-yl)pyrazolo[1,5-a]pyrimidine-3-carboxamide], under setting [1], the Ki was 10 to 1000 nM.

On to `CN1CCN(c2c(NC(=O)c3c(N)nn4cc(F)cnc34)cncc2C(F)F)CC1` [I-N-111, 2-amino-N-(5-(difluoromethyl)-4-(4-methylpiperazin-1-yl)pyridin-3-yl)-6-fluoropyrazolo[1,5-a]pyrimidine-3-carboxamide], for which the Ki lay in the range of 1000 to 5000 nM.

`CN(C)C1CCN(C2CCN(c3ccncc3NC(=O)c3c(N)nn4cc(Cl)cnc34)CC2)C1` (centres unmarked) [I-N-106, 2-amino-6-chloro-N-(4-(4-(3-(dimethylamino)pyrrolidin-1-yl)piperidin-1-yl)pyridin-3-yl)pyrazolo[1,5-a]pyrimidine-3-carboxamide]: under setting [1], the Ki was in the range of 10 to 1000 nM.

Consider `Nc1nn2cc(F)cnc2c1C(=O)Nc1cncc(F)c1N1CCC(n2ccnc2)CC1` [I-N-288, N-(4-(4-(1H-imidazol-1-yl)piperidin-1-yl)-5-fluoropyridin-3-yl)-2-amino-6-fluoropyrazolo[1,5-a]pyrimidine-3-carboxamide], for which the Ki under setting [1] fell in the range of 10 to 1000 nM.

As to `CN1CCN2CCN(c3ccncc3NC(=O)c3c(N)nn4cc(F)cnc34)CC2C1=O` (centres unmarked) [I-N-233, 2-amino-6-fluoro-N-(4-(8-methyl-9-oxohexahydro-1H-pyrazino[1,2-a]pyrazin-2(6H)-yl)pyridin-3-yl)pyrazolo[1,5-a]pyrimidine-3-carboxamide], the Ki under setting [1] was 10 to 1000 nM.

Take `Nc1nn2cc(F)cnc2c1C(=O)Nc1cnccc1-c1ccncc1` [I-C-24, N-([4,4′-bipyridin]-3-yl)-2-amino-6-fluoropyrazolo[1,5-a]pyrimidine-3-carboxamide]: under setting [1], the Ki fell in the range of 10 to 1000 nM.

Turning to `Nc1nn2cc(F)cnc2c1C(=O)Nc1cnccc1-c1ccc(C(=O)N2CCN3CCC2CC3)cc1` [I-C-48, N-(4-(4-(1,4-diazabicyclo[3.2.2]nonane-4-carbonyl)phenyl)pyridin-3-yl)-2-amino-6-fluoropyrazolo[1,5-a]pyrimidine-3-carboxamide], the Ki under setting [1] lay in the range of 10 to 1000 nM.

As to `CN(C)C(=O)C1CCN(c2c(F)cncc2NC(=O)c2c(N)nn3cc(F)cnc23)CC1` [I-G-29, 2-amino-N-(4-(4-(dimethylcarbamoyl)piperidin-1-yl)-5-fluoropyridin-3-yl)-6-fluoropyrazolo[1,5-a]pyrimidine-3-carboxamide], under setting [1], the Ki was 10 to 1000 nM.

As for `N#CCc1cnc2c(C(=O)Nc3cnccc3N3CCC(N)CC3)c(N)nn2c1` [I-N-2, 2-amino-N-(4-(4-aminopiperidin-1-yl)pyridin-3-yl)-6-(cyanomethyl)pyrazolo[1,5-a]pyrimidine-3-carboxamide], the Ki under setting [1] lay in the range of 10 to 1000 nM.

For `CN1CCN(c2c(F)cncc2NC(=O)c2c(N)nn3cc(CC#N)cnc23)CC1` [I-N-80, 2-amino-6-(cyanomethyl)-N-(5-fluoro-4-(4-methylpiperazin-1-yl)pyridin-3-yl)pyrazolo[1,5-a]pyrimidine-3-carboxamide], the Ki under setting [1] was in the range of 10 to 1000 nM.

`Cc1ncccc1-c1ccncc1NC(=O)c1c(N)nn2cc(F)cnc12` [I-C-20, 2-amino-6-fluoro-N-(2-methyl-[3,4′-bipyridin]-3′-yl)pyrazolo[1,5-a]pyrimidine-3-carboxamide]: the Ki under setting [1] was 10 to 1000 nM.

Regarding `CN1CCOC(C(=O)N2CCN(c3c(F)cncc3NC(=O)c3c(N)nn4cc(F)cnc34)CC2)C1` (centres unmarked) [I-N-174, 2-amino-6-fluoro-N-(5-fluoro-4-(4-(4-methylmorpholine-2-carbonyl)piperazin-1-yl)pyridin-3-yl)pyrazolo[1,5-a]pyrimidine-3-carboxamide], the Ki under setting [1] was 10 to 1000 nM.

As for `CN1CCN(c2ccncc2NC(=O)c2c(N)nn3cc(C(C)(C)C#N)cnc23)CC1` [I-N-76, 2-amino-6-(2-cyanopropan-2-yl)-N-(4-(4-methylpiperazin-1-yl)pyridin-3-yl)pyrazolo[1,5-a]pyrimidine-3-carboxamide], the Ki is 1000 to 5000 nM.
